The text below walks through data of PubChem BioAssay AID743420 (The Scripps Research Institute Molecular Screening Center, 2014).

Active and inactive are the calls of the source. No rule for the calls is given here.

The target in the assay is Sphingosine 1-phosphate receptor 5 (Homo sapiens) (UniProt Q9H228). The assay can be described thus: agonism at human S1PR5 – cell-based, FRET, dose response, counter-screen for S1PR3 antagonist project, late-stage follow-up (AID 743420). To be noted: S1P5 cell-based FRET assay, agonist mode.
Sphingosine 1-phosphate receptor 5 (Homo sapiens), sequence (Q9H228 whole entry, looked up): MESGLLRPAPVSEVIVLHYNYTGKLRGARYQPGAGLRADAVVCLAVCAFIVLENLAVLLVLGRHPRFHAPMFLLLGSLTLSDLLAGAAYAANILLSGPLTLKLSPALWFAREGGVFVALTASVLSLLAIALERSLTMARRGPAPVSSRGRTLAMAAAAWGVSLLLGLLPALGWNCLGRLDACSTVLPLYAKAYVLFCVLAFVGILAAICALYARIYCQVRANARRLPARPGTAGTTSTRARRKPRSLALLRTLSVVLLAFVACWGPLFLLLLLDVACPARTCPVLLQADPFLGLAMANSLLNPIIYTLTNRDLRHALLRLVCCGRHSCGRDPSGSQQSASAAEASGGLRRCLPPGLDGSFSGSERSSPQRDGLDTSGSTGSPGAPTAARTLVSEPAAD

Turning to `COc1ccc(C(=O)NC(c2ccccc2)c2nc(-c3ccccc3)no2)cc1` (configuration not stated), the EC50 is > 28.2 µM (inactive).

Take `Cc1ccc(C(NC(=O)c2cccc(Cl)c2)c2nc(-c3ccccc3)no2)cc1` (configuration not stated): the EC50 was > 28.2 µM (inactive).

Take `O=C(NC(c1ccc(Cl)c(Cl)c1)c1nc(-c2ccccc2)no1)c1ccc(Cl)cc1` (configuration not stated): the EC50 is > 28.2 µM (inactive).

Regarding `O=C(NC(c1ccc(Cl)cc1)c1nc(-c2ccccc2)no1)c1cccc(Br)c1` (configuration not stated), the EC50 was > 28.2 µM (inactive).

Take `O=C(NC(c1ccc(Cl)c(Cl)c1)c1nc(-c2ccccc2)no1)c1ccc(Cl)c(Cl)c1` (configuration not stated): the EC50 is > 28.2 µM (inactive).

Turning to `O=C(NC(c1ccccc1)c1nc(-c2ccccc2)no1)c1cccc(Cl)n1` (configuration not stated), the EC50 is > 28.2 µM (inactive).

For `O=C(NC(c1cccc(Cl)c1)c1nc(-c2ccccc2)no1)c1ccc(Cl)c(Cl)c1` (configuration not stated), the EC50 is > 28.2 µM (inactive).

For the compound `N#Cc1ccc(C(=O)NC(c2ccc(Cl)c(Cl)c2)c2nc(-c3ccccc3)no2)cc1` (configuration not stated), the EC50 is > 28.2 µM (inactive).

`O=C(NC(c1ccc(Cl)cc1)c1nc(-c2ccccc2)no1)c1ccc(Cl)c(Br)c1` (configuration not stated): the EC50 was > 28.2 µM (inactive).

With `O=C(NC(c1ccc(Cl)c(Cl)c1)c1nc(-c2ccccc2)no1)c1ccccc1` (configuration not stated), the EC50 is > 28.2 µM (inactive).

Regarding `O=C(NC(c1cccc(Cl)c1)c1nc(-c2ccccc2)no1)c1cc(Cl)cc(Cl)c1` (configuration not stated), the EC50 was > 28.2 µM (inactive).

With `O=C(NC(c1ccc(Cl)cc1)c1nc(-c2ccccc2)no1)c1ccc(Cl)c(Cl)c1` (configuration not stated), the EC50 was > 28.2 µM (inactive).

For `O=C(NC(c1ccc(Cl)c(Cl)c1)c1nc(-c2ccccc2)no1)c1cccc(Cl)c1` (configuration not stated), the EC50 is > 28.2 µM (inactive).

With `O=C(NC(c1cccc(Cl)c1)c1nc(-c2ccccc2)no1)c1cccc(Cl)c1` (configuration not stated), the EC50 is > 28.2 µM (inactive).

Regarding `O=C(c1cccc(Cl)c1)N(CCO)C(c1ccc(Cl)c(Cl)c1)c1nc(-c2ccccc2)no1` (configuration not stated), the EC50 was > 28.2 µM (inactive).

Take `O=C(NC(c1nc(-c2ccccc2)no1)C1CCCCC1)c1ccc(Cl)c(Cl)c1` (configuration not stated): the EC50 is > 28.2 µM (inactive).

Take `O=C(NC(c1ccc(Cl)cc1)c1nc(-c2ccccn2)no1)c1cccc(Cl)c1` (configuration not stated): the EC50 was > 28.2 µM (inactive).

Regarding `O=C(NC(c1ccccc1)c1nc(-c2ccccc2)no1)c1ccc(Cl)cc1` (configuration not stated), the EC50 is > 28.2 µM (inactive).

With `Cc1ccc(C(=O)NC(c2ccccc2)c2nc(-c3ccccc3)no2)cc1` (configuration not stated), the EC50 was > 28.2 µM (inactive).

Turning to `CCc1ccc(C(NC(=O)c2cccc(Cl)c2)c2nc(-c3ccccc3)no2)cc1` (configuration not stated), the EC50 is > 28.2 µM (inactive).

As to `O=C(NC(c1ccccc1)c1nc(-c2ccccc2)no1)c1cccc(Br)c1` (configuration not stated), the EC50 was > 28.2 µM (inactive).

As to `O=C(NC(c1ccc(Br)cc1)c1nc(-c2ccccc2)no1)c1ccc(Cl)c(Cl)c1` (configuration not stated), the EC50 is > 28.2 µM (inactive).

As to `O=C(NC(Cc1ccccc1)c1nc(-c2ccccc2)no1)c1cccc(Cl)c1` (configuration not stated), the EC50 was > 28.2 µM (inactive).

As to `O=C(NC(c1ccc(Cl)cc1)c1nc(-c2ccccc2)no1)c1cccc(Cl)c1` (configuration not stated), the EC50 is > 28.2 µM (inactive).

Regarding `O=C(NC(c1ccccc1)c1nc(-c2ccccc2)no1)c1cccc(Cl)c1` (configuration not stated), the EC50 is > 28.2 µM (inactive).

On to `O=C(NC(c1ccc(Cl)cc1)c1nc(-c2cccc(Cl)c2)no1)c1cccc(Cl)c1` (configuration not stated), for which the EC50 was > 28.2 µM (inactive).

As for `O=C(NC(c1nc(-c2ccccc2)no1)C1CCOCC1)c1ccc(Cl)c(Cl)c1` (configuration not stated), the EC50 is > 28.2 µM (inactive).
